Results as given in patent US11643391B2, “Prodrugs and conjugates of dimethyltryptamine” (priority 2021, dated 2023).

Legend:
[1] = Stability in SGF with pepsin; assay type: physicochemical
[2] = Stability in SGF without pepsin; assay type: physicochemical
[3] = Stability in Mouse Plasma; assay type: in vitro ADME
physchem = details: buffer, pH 6.5
[4] = Table 8, if calculated T½ < 0, T½ reported as 9999 min

Compound: CCCCC(=O)Oc1cccc2ccn(CCN(C)C)c12 [VLS-03-1]
- Peak Area of MRM: 205.0/159.8 (analyte VLS-03-1 Parent) ([1]; 0 min): 5.72E+04
- Peak Area of MRM: 205.0/159.8 (analyte VLS-03-1 Parent) ([1]; 30 min): 5.37E+04
- Peak Area of MRM: 205.0/159.8 (analyte VLS-03-1 Parent) ([1]; 60 min): 5.01E+04
- Peak Area of MRM: 205.0/159.8 (analyte VLS-03-1 Parent) ([1]; 120 min): 5.48E+04
- Peak Area of MRM: 205.0/159.8 (analyte VLS-03-1 Parent) ([1]; 240 min): 5.27E+04
- Remaining Percentage ([1]; Table 8, 0 min): 100.00%
- Remaining Percentage ([1]; Table 8, 30 min): 101.74%
- Remaining Percentage ([1]; Table 8, 60 min): 90.49%
- Remaining Percentage ([1]; Table 8, 120 min): 102.16%
- Remaining Percentage ([1]; Table 8, 240 min): 96.47%
- half-life [1, 4]: 149 h
- Peak Area of MRM: 205.0/159.8 (analyte VLS-03-1 Parent) ([1]; VLS-03-1 standard): 4.22E+04
- Peak Area of MRM: 205.0/159.8 (analyte VLS-03-1 Parent) ([2]; 0 min): 4.53E+04
- Peak Area of MRM: 205.0/159.8 (analyte VLS-03-1 Parent) ([2]; 30 min): 4.75E+04
- Peak Area of MRM: 205.0/159.8 (analyte VLS-03-1 Parent) ([2]; 60 min): 4.51E+04
- Peak Area of MRM: 205.0/159.8 (analyte VLS-03-1 Parent) ([2]; 120 min): 4.66E+04
- Peak Area of MRM: 205.0/159.8 (analyte VLS-03-1 Parent) ([2]; 240 min): 4.57E+04
- Remaining Percentage ([2]; Table 8, 0 min): 100.00%
- Remaining Percentage ([2]; Table 8, 30 min): 106.25%
- Remaining Percentage ([2]; Table 8, 60 min): 99.72%
- Remaining Percentage ([2]; Table 8, 120 min): 104.22%
- Remaining Percentage ([2]; Table 8, 240 min): 103.22%
- T½ [2, 4]: 166.65 h
- Peak Area of MRM: 205.0/159.8 (analyte VLS-03-1 Parent) ([2]; VLS-03-1 standard): 3.75E+04
- Remaining Percentage ([3]; Table 9, 0 min): 100.00%
- Remaining Percentage ([3]; Table 9, 15 min): 0.00%
- Remaining Percentage ([3]; Table 9, 30 min): 0.00%
- Remaining Percentage ([3]; Table 9, 60 min): 0.00%
- Remaining Percentage ([3]; Table 9, 120 min): 0.00%
- Peak Area of MRM: 205.0/159.8 (analyte VLS-03-1 Parent) (Stability in PBS pH 6.5; 0 min): 5.04E+04
- Peak Area of MRM: 205.0/159.8 (analyte VLS-03-1 Parent) (Stability in PBS pH 6.5; 30 min): 4.71E+04
- Peak Area of MRM: 205.0/159.8 (analyte VLS-03-1 Parent) (Stability in PBS pH 6.5; 60 min): 4.71E+04
- Peak Area of MRM: 205.0/159.8 (analyte VLS-03-1 Parent) (Stability in PBS pH 6.5; 120 min): 4.86E+04
- Peak Area of MRM: 205.0/159.8 (analyte VLS-03-1 Parent) (Stability in PBS pH 6.5; 240 min): 4.75E+04
- Remaining Percentage (Stability in PBS pH 6.5; Table 8, 0 min): 100.00%
- Remaining Percentage (Stability in PBS pH 6.5; Table 8, 30 min): 96.32%
- Remaining Percentage (Stability in PBS pH 6.5; Table 8, 60 min): 99.71%
- Remaining Percentage (Stability in PBS pH 6.5; Table 8, 120 min): 100.03%
- Remaining Percentage (Stability in PBS pH 6.5; Table 8, 240 min): 101.35%
- T½ (Stability in PBS pH 6.5; [4]): 166.65 h
- Peak Area of MRM: 205.0/159.8 (analyte VLS-03-1 Parent) (Stability in PBS pH 6.5; VLS-03-1 standard): 4.49E+04

Compound: CC(OC(=O)C(C)C)OC(=O)n1cc(CCN(C)C)c2ccccc21 (stereo not shown) [VLS-03-10]
- Peak Area of MRM: 188.7/144.0 (analyte VLS-03-10 Parent) ([1]; 0 min): 5.13E+03
- Peak Area of MRM: 188.7/144.0 (analyte VLS-03-10 Parent) ([1]; 30 min): 5.10E+03
- Peak Area of MRM: 188.7/144.0 (analyte VLS-03-10 Parent) ([1]; 60 min): 5.25E+03
- Peak Area of MRM: 188.7/144.0 (analyte VLS-03-10 Parent) ([1]; 120 min): 5.32E+03
- Peak Area of MRM: 188.7/144.0 (analyte VLS-03-10 Parent) ([1]; 240 min): 5.28E+03
- Remaining Percentage ([1]; Table 8, 0 min): 100.00%
- Remaining Percentage ([1]; Table 8, 30 min): 96.82%
- Remaining Percentage ([1]; Table 8, 60 min): 93.09%
- Remaining Percentage ([1]; Table 8, 120 min): 91.42%
- Remaining Percentage ([1]; Table 8, 240 min): 89.32%
- half-life [1, 4]: 26.7 h
- Peak Area of MRM: 188.7/144.0 (analyte VLS-03-10 Parent) ([1]; VLS-03-10 standard): 4.05E+03
- Peak Area of MRM: 188.7/144.0 (analyte VLS-03-10 Parent) ([2]; 0 min): 5.29E+03
- Peak Area of MRM: 188.7/144.0 (analyte VLS-03-10 Parent) ([2]; 30 min): 4.98E+03
- Peak Area of MRM: 188.7/144.0 (analyte VLS-03-10 Parent) ([2]; 60 min): 4.66E+03
- Peak Area of MRM: 188.7/144.0 (analyte VLS-03-10 Parent) ([2]; 120 min): 4.93E+03
- Peak Area of MRM: 188.7/144.0 (analyte VLS-03-10 Parent) ([2]; 240 min): 4.61E+03
- Remaining Percentage ([2]; Table 8, 0 min): 100.00%
- Remaining Percentage ([2]; Table 8, 30 min): 99.86%
- Remaining Percentage ([2]; Table 8, 60 min): 104.95%
- Remaining Percentage ([2]; Table 8, 120 min): 98.41%
- Remaining Percentage ([2]; Table 8, 240 min): 98.86%
- half-life [2, 4]: 117 h
- Peak Area of MRM: 188.7/144.0 (analyte VLS-03-10 Parent) ([2]; VLS-03-10 standard): 3.46E+03
- Remaining Percentage ([3]; Table 9, 0 min): 100.00%
- Remaining Percentage ([3]; Table 9, 15 min): 0.00%
- Remaining Percentage ([3]; Table 9, 30 min): 0.00%
- Remaining Percentage ([3]; Table 9, 60 min): 0.00%
- Remaining Percentage ([3]; Table 9, 120 min): 0.00%
- half-life (physchem): 331 h
- Peak Area of MRM: 188.7/144.0 (analyte VLS-03-10 Parent) (Stability in PBS pH 6.5; 0 min): 5.32E+03
- Peak Area of MRM: 188.7/144.0 (analyte VLS-03-10 Parent) (Stability in PBS pH 6.5; 30 min): 4.68E+03
- Peak Area of MRM: 188.7/144.0 (analyte VLS-03-10 Parent) (Stability in PBS pH 6.5; 60 min): 5.00E+03
- Peak Area of MRM: 188.7/144.0 (analyte VLS-03-10 Parent) (Stability in PBS pH 6.5; 120 min): 4.72E+03
- Peak Area of MRM: 188.7/144.0 (analyte VLS-03-10 Parent) (Stability in PBS pH 6.5; 240 min): 4.95E+03
- Remaining Percentage (Stability in PBS pH 6.5; Table 8, 0 min): 100.00%
- Remaining Percentage (Stability in PBS pH 6.5; Table 8, 30 min): 92.62%
- Remaining Percentage (Stability in PBS pH 6.5; Table 8, 60 min): 100.03%
- Remaining Percentage (Stability in PBS pH 6.5; Table 8, 120 min): 92.63%
- Remaining Percentage (Stability in PBS pH 6.5; Table 8, 240 min): 97.66%
- Peak Area of MRM: 188.7/144.0 (analyte VLS-03-10 Parent) (Stability in PBS pH 6.5; VLS-03-10 standard): 4.34E+03

Compound: CC[C@H]1OC(=O)[C@H](C)[C@@H](O[C@H]2C[C@@](C)(OC)[C@@H](O)[C@H](C)O2)[C@H](C)[C@@H](O[C@@H]2O[C@H](C)C[C@H](N(C)C)[C@H]2O)[C@](C)(O)C[C@@H](C)C(=O)[C@H](C)[C@@H](O)[C@]1(C)O [Erythromycin, reference compound]
- Remaining Percentage ([1]; Table 8, 0 min): 100.00%
- Remaining Percentage ([1]; Table 8, 30 min): 56.55%
- Remaining Percentage ([1]; Table 8, 60 min): 37.33%
- Remaining Percentage ([1]; Table 8, 120 min): 14.06%
- Remaining Percentage ([1]; Table 8, 240 min): 2.14%
- half-life [1, 4]: 0.727 h
- Remaining Percentage ([1]; Table 10, 0 min): 100.00%
- Remaining Percentage ([1]; Table 10, 30 min): 56.55%
- Remaining Percentage ([1]; Table 10, 60 min): 34.88%
- Remaining Percentage ([1]; Table 10, 120 min): 11.22%
- Remaining Percentage ([1]; Table 10, 240 min): 1.60%
- half-life ([1]; Table 10, read-out: T½): 0.671 h
- Remaining Percentage ([2]; Table 8, 0 min): 100.00%
- Remaining Percentage ([2]; Table 8, 30 min): 52.67%
- Remaining Percentage ([2]; Table 8, 60 min): 28.46%
- Remaining Percentage ([2]; Table 8, 120 min): 8.27%
- Remaining Percentage ([2]; Table 8, 240 min): 1.47%
- half-life [2, 4]: 0.658 h
- Remaining Percentage ([2]; Table 10, 0 min): 100.00%
- Remaining Percentage ([2]; Table 10, 30 min): 59.45%
- Remaining Percentage ([2]; Table 10, 60 min): 33.60%
- Remaining Percentage ([2]; Table 10, 120 min): 10.27%
- Remaining Percentage ([2]; Table 10, 240 min): 1.20%
- half-life ([2]; Table 10, read-out: T½): 0.623 h

Compound: C[N+](C)(CCc1c[nH]c2ccccc12)COP(=O)([O-])O [VLS-02-23]
- Remaining Percentage ([1]; Table 10, 0 min): 100.00%
- Remaining Percentage ([1]; Table 10, 30 min): 96.70%
- Remaining Percentage ([1]; Table 10, 60 min): 106.43%
- Remaining Percentage ([1]; Table 10, 120 min): 102.36%
- Remaining Percentage ([1]; Table 10, 240 min): 96.82%
- half-life ([1]; Table 10, read-out: T½): 104 h
- T½ ([2]; Table 10): 166.65 h
- Remaining Percentage ([2]; Table 10, 0 min): 100.00%
- Remaining Percentage ([2]; Table 10, 30 min): 98.76%
- Remaining Percentage ([2]; Table 10, 60 min): 107.08%
- Remaining Percentage ([2]; Table 10, 120 min): 101.90%
- Remaining Percentage ([2]; Table 10, 240 min): 108.80%
- Remaining Percentage ([3]; Table 11, 0 min): 100.00%
- Remaining Percentage ([3]; Table 11, 15 min): 114.24%
- Remaining Percentage ([3]; Table 11, 30 min): 110.21%
- Remaining Percentage ([3]; Table 11, 60 min): 109.95%
- Remaining Percentage ([3]; Table 11, 120 min): 91.16%
- half-life ([3]; mouse, plasma, Table 11, read-out: T½): 9.47 h
- T½ (Stability in PBS pH 6.5; Table 10): 166.65 h
- Remaining Percentage (Stability in PBS pH 6.5; Table 10, 0 min): 100.00%
- Remaining Percentage (Stability in PBS pH 6.5; Table 10, 30 min): 104.71%
- Remaining Percentage (Stability in PBS pH 6.5; Table 10, 60 min): 106.37%
- Remaining Percentage (Stability in PBS pH 6.5; Table 10, 120 min): 107.29%
- Remaining Percentage (Stability in PBS pH 6.5; Table 10, 240 min): 117.35%
